# Patent publication US20130217664A1, “NOVEL COMPOUNDS USEFUL FOR THE TREATMENT OF DEGENERATIVE AND INFLAMMATORY DISEASES” (priority 2012, published 2013)
# Molecular target: T1, human JAK1 (Homo sapiens, UniProt P23458)
# T1 construct: catalytic domain, amino acids 866-1154; catalog number PV4774; purchased Invitrogen PV4774
# Experiment: JAK1 inhibition assay (polyGT substrate / Ulight-JAK1 peptide)
# Format: biochemical
# Conditions: recombinant human JAK1 catalytic domain; polyGT or Ulight-JAK1 peptide assay
# Protocol: 1.1 JAK1 Inhibition Assay
# 1.1.1 JAK1 Assay polyGT Substrate
# After 45 min at 30° C., reactions are stopped by adding of 25 μL/well of 150 mM phosphoric acid. […] Plates are washed 6 times with 300 μL per well of a 75 mM phosphoric acid solution and the bottom of the plates is sealed. 40 μL/well of Microscint-20 is added, the top of the plates is sealed and readout is performed using the Topcount (Perkin Elmer). Kinase activity is calculated by subtracting counts per min (cpm) obtained in the presence of a positive control inhibitor (10 μM staurosporine) from cpm obtained in the presence of vehicle. The ability of a test compound to inhibit this activity is determined as:
# Percentage inhibition=((cpm determined for sample with test compound present−cpm determined for sample with positive control inhibitor)divided by(cpm determined in the presence of vehicle−cpm determined for sample with positive control inhibitor))*100.
# Dose dilution series are prepared for the compounds enabling the testing of dose-response effects in the JAK1 assay and the calculation of the IC50 for each compound.
# 1.1.2 JAK1 Ulight-JAK1 Peptide Assay
# After 60 min at room temperature, reactions were stopped by adding 20 μL/well of detection mixture (1× detection buffer (Perkin Elmer, catalog number CR97-100C), 0.5 nM Europium-anti-phosphotyrosine (PT66) (Perkin Elmer, catalog number AD0068), 10 mM EDTA). […] Kinase activity was calculated by subtracting relative fluorescence units (RFU) obtained in the presence of a positive control inhibitor (10 μM staurosporine) from RFU obtained in the presence of vehicle. The ability of a test compound to inhibit this activity was determined as:
# Percentage inhibition=((RFU determined for sample with test compound present−RFU determined for sample with positive control inhibitor)divided by(RFU determined in the presence of vehicle−RFU determined for sample with positive control inhibitor))*100.
# Dose dilution series were prepared for the compounds enabling the testing of dose-response effects in the JAK1 assay and the calculation of the IC50 for the compound. Each compound is routinely tested at concentration of 20 μM followed by a 1/5 serial dilution, 10 points in a final concentration of 1% DMSO. […] The data are expressed as the average IC50 from the assays±standard error of the mean.
# T1 sequence (P23458 866-1154): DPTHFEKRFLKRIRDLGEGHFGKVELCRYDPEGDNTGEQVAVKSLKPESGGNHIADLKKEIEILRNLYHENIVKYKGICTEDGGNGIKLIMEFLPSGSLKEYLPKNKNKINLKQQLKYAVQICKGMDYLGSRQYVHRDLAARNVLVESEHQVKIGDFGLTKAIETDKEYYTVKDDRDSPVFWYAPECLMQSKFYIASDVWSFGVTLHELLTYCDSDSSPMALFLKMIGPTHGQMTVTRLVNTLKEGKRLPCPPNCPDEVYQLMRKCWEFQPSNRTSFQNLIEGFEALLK
row,IC50,Compound
1,> 1000 nM,"CCOC(=O)c1ccc(N(CC)c2cc3c(cn2)ncn3C)cc1 [Compound 7, 4-[Ethyl-(1-methyl-1H-imidazo[4,5-c]pyridin-6-yl)-amino]-benzoic acid ethyl ester]"
2,101 to 500 nM,"CCc1cc(-c2c(C)nn(C)c2C)ccc1N(C)c1cc2c(cn1)ncn2C [Compound 138, N-(2-ethyl-4-(1,3,5-trimethyl-1H-pyrazol-4-yl)phenyl)-N,1-dimethyl-1H-imidazo[4,5-c]pyridin-6-amine]"
3,0.01 to 100 nM,"CCc1cc(-c2cn(C)cn2)ccc1N(C)c1cc2c(cn1)ncn2C [Compound 145, N-(2-ethyl-4-(1-methyl-1H-imidazol-4-yl)phenyl)-N,1-dimethyl-1H-imidazo[4,5-c]pyridin-6-amine]"
4,0.01 to 100 nM,"CCc1cc(CNC2CCS(=O)(=O)CC2)ccc1N(C)c1cc2c(cn1)ncn2C [Compound 146, {4-[(1,1-Dioxo-hexahydrothiopyran-4-ylamino)-methyl]-2-ethyl-phenyl}-methyl-(1-methyl-1H-imidazo[4,5-c]pyridin-6-yl)-amine]"
5,0.01 to 100 nM,"CCc1cc(C(=O)NC2CCCN(C)C2)ccc1N(C)c1cc2c(cn1)ncn2C (stereo not drawn) [Compound 152, 3-ethyl-4-(methyl(1-methyl-1H-imidazo[4,5-c]pyridin-6-yl)amino)-N-(1-methylpiperidin-3-yl)benzamide]"
6,0.01 to 100 nM,"CCc1cc(CNCC(C)(C)O)ccc1N(C)c1cc2c(cn1)ncn2C [Compound 169, 1-(3-ethyl-4-(methyl(1-methyl-1H-imidazo[4,5-c]pyridin-6-yl)amino)benzylamino)-2-methylpropan-2-ol]"
7,501 to 1000 nM,"CCc1cc(C(=O)NC2CN(C(=O)OC(C)(C)C)C2)ccc1N(C)c1cc2c(cn1)ncn2C [Compound 170, tert-butyl 3-(3-ethyl-4-(methyl(1-methyl-1H-imidazo[4,5-c]pyridin-6-yl)amino)benzamido)azetidine-1-carboxylate]"
8,101 to 500 nM,"CCc1cc(C(=O)NC2COC2)ccc1N(C)c1cc2c(cn1)ncn2C [Compound 171, 3-ethyl-4-(methyl(1-methyl-1H-imidazo[4,5-c]pyridin-6-yl)amino)-N-(oxetan-3-yl)benzamide]"
9,0.01 to 100 nM,"CCc1cc(Cn2ccnc2C)ccc1N(C)c1cc2c(cn1)ncn2C [Compound 173, N-(2-Ethyl-4-((2-methyl-1H-imidazol-1-yl)methyl)phenyl)-N,1-dimethyl-1H-imidazo[4,5-c]pyridin-6-amine]"
10,101 to 500 nM,"CCc1cc(C(=O)NC2CNC2)ccc1N(C)c1cc2c(cn1)ncn2C [Compound 174, N-(azetidin-3-yl)-3-ethyl-4-(methyl(1-methyl-1H-imidazo[4,5-c]pyridin-6-yl)amino)benzamide]"
11,501 to 1000 nM,"CCc1cc(C(=O)NC2CN(S(C)(=O)=O)C2)ccc1N(C)c1cc2c(cn1)ncn2C [Compound 175, 3-Ethyl-4-(methyl(1-methyl-1H-imidazo[4,5-c]pyridin-6-yl)amino)-N-(1-(methylsulfonyl)azetidin-3-yl)benzamide]"
12,101 to 500 nM,"CCc1cc(C2CCN(C(=O)OC(C)(C)C)CC2)ccc1N(C)c1cc2c(cn1)ncn2C [Compound 180, tert-butyl 4-(3-ethyl-4-(methyl(1-methyl-1H-imidazo[4,5-c]pyridin-6-yl)amino)phenyl)piperidine-1-carboxylate]"
13,0.01 to 100 nM,"CCc1cc(-c2n[nH]c(C)n2)ccc1N(C)c1cc2c(cn1)ncn2C [Compound 183, N-(2-ethyl-4-(5-methyl-1H-1,2,4-triazol-3-yl)phenyl)-N,1-dimethyl-1H-imidazo[4,5-c]pyridin-6-amine]"
14,101 to 500 nM,"CCc1cc(-c2cnc(N3CCOCC3)nc2)ccc1N(C)c1cc2c(cn1)ncn2C [Compound 184, N-(2-Ethyl-4-(2-morpholinopyrimidin-5-yl)phenyl)-N,1-dimethyl-1H-imidazo[4,5-d]pyridin-6-amine]"
15,> 1000 nM,"CCc1cc(C(=O)O)ccc1N(C)c1cc2c(cn1)ncn2C [Compound 185, 3-Ethyl-4-(methyl(1-methyl-1H-imidazo[4,5-c]pyridin-6-yl)amino)benzoic acid]"
16,0.01 to 100 nM,"CCc1cc(C2CCNCC2)ccc1N(C)c1cc2c(cn1)ncn2C [Compound 187, N-(2-Ethyl-4-(piperidin-4-yl)phenyl)-N,1-dimethyl-1H-imidazo[4,5-c]pyridin-6-amine]"
17,101 to 500 nM,"CCc1cc(-c2n[nH]c(C3CC3)n2)ccc1N(C)c1cc2c(cn1)ncn2C [Compound 188, N-(4-(5-cyclopropyl-1H-1,2,4-triazol-3-yl)-2-ethylphenyl)-N,1-dimethyl-1H-imidazo[4,5-c]pyridin-6-amine]"
18,0.01 to 100 nM,"CCNC(=O)NCc1ccc(N(C)c2cc3c(cn2)ncn3C)c(CC)c1 [Compound 192, 1-Ethyl-3-(3-ethyl-4-(methyl(1-methyl-1H-imidazo[4,5-c]pyridin-6-yl)amino)benzyl)urea]"
19,> 1000 nM,"CC(NC(=O)OC(C)(C)C)c1ccc(N(C)c2cc3c(cn2)ncn3C)c(F)c1 (stereo not drawn) [Compound 268, tert-Butyl (1-(3-fluoro-4-(methyl(1-methyl-1H-imidazo[4,5-c]pyridin-6-yl)amino)phenyl)ethyl)carbamate]"
20,501 to 1000 nM,"CC(=O)N1CC(c2ccc(N(C)c3cc4c(cn3)ncn4C)c(F)c2)C1 [Compound 278, 1-(3-{3-Fluoro-4-[methyl-(1-methyl-M-imidazo[4,5-c]pyridin-6-yl)-amino]-phenyl}-azetidin-1-yl)-ethanone]"
21,> 1000 nM,"CN(c1cc2c(cn1)ncn2C)c1ccc(C2CCN(C(=O)OC(C)(C)C)CC2)cc1F [Compound 279, 4-{3-Fluoro-4-[methyl-(1-methyl-M-imidazo[4,5-c]pyridin-6-yl)-amino]-phenyl}-piperidine-1-carboxylic acid tert-butyl ester]"
22,101 to 500 nM,"CN(c1cc2c(cn1)ncn2C)c1ccc(C2=CCN(C(=O)OC(C)(C)C)CC2)cc1OC(F)F [Compound 281, 4-{3-Difluoromethoxy-4-[methyl-(1-methyl-1H-imidazo[4,5-c]pyridin-6-yl)-amino]-phenyl}-3,6-dihydro-2H-pyridine-1-carboxylic acid tert-butyl ester]"
23,> 1000 nM,"Cn1cnc2cnc(N(CC3CC3)c3ccc(C#N)cc3F)cc21 [Compound 282, 4-[Cyclopropylmethyl-(1-methyl-1H-imidazo[4,5-c]pyridin-6-yl)-amino]-3-fluoro-benzonitrile]"
24,101 to 500 nM,"CCc1ccccc1N(CCC#N)c1cc2c(cn1)ncn2C [Compound 285, 3-[(2-Ethyl-phenyl)-(1-methyl-1H-imidazo[4,5-c]pyridin-6-yl)-amino]-propionitrile]"
25,101 to 500 nM,"CN(c1cc2c(cn1)ncn2C)c1ccc(C2CCN(C(=O)OC(C)(C)C)CC2)cc1OC(F)F [Compound 286, 4-{3-Difluoromethoxy-4-[methyl-(1-methyl-1H-imidazo[4,5-c]pyridin-6-yl)-amino]-phenyl}-piperidine-1-carboxylic acid tert-butyl ester]"
26,501 to 1000 nM,"CCc1ccccc1N(C)c1cc2c(cn1)ncn2C1CC1 [Compound 296, 1-cyclopropyl-N-(2-ethylphenyl)-N-methyl-1H-imidazo[4,5-c]pyridin-6-amine]"
27,501 to 1000 nM,"CCc1ccccc1N(C)c1cc2c(cn1)ncn2CC [Compound 297, 1-ethyl-N-(2-ethylphenyl)-N-methyl-1H-imidazo[4,5-c]pyridin-6-amine]"
